Results from PMC11407620, “Repurposing auranofin and meclofenamic acid as energy-metabolism inhibitors and anti-cancer drugs” (PLOS ONE, 2024).
Where two headings read alike, the source gives them in different places.

Columns and labels:
HeLa cells = experiment: OxPhos flux (oligomycin-sensitive respiration) in intact cells; type: cell-based, human; settings: 24 h
Description: (§1) For oxidative phosphorylation (OxPhos) flux, cells (2–5 mg protein/mL) were incubated at 37°C in air saturated KR medium plus 5 mM glucose. To distinguish the oxygen consumption associated to OxPhos, the cells were incubated with 5 μM oligomycin (Sigma-Aldrich, MO, USA), a potent, specific, and permeable inhibitor of the mitochondrial ATP synthase. The net OxPhos rate was determined by using a Clark type electrode, as previously described and by using a high-resolution respirometer (Oroboros Instruments, Innsbruck, Austria) at 37°C. The contribution of OxPhos and glycolysis to the cellular ATP supply was determined, respectively, from the net OxPhos rate (oligomycin-sensitive respiration) multiplied by the ATP/O or P»/O2 ratio that corresponds to 2.5 or 5, and from the rate of lactate production, assuming a stoichiometry of 1 mol of ATP produced per 1 mol of lactate produced.

MDA-MB-231 cells = experiment: as above; type: cell-based, human; settings: 24 h
Description: as §1

Breast MDA-MB-231 cells = experiment: Cell proliferation, 24 h drug exposure; type: cell-based, human; settings: for IC50: Breast MDA-MB-231, 24 h, read-out: IC50 for proliferation cell rate; for TI ratio (3T3/ cancer cells): IC50 3T3 / IC50 MDA-MB-231; for TI ratio (H9C2/cancer cells): IC50 H9C2 / IC50 MDA-MB-231
Description: (§2) All metastatic (breast MDA-MB231, MDA-MB468, cervix HeLa, prostate PC3, colorectal HCT116, COLO205, glioblastoma U373), low-metastatic (breast MCF-7) cancer and non-cancer (fibroblast 3T3, cardiomyocytes H9C2) cell lines (American Type Culture Collection, Rockville, MD, USA) used in this study were cultured in Petri dishes in 20 mL of Dulbecco’s Modified Eagle’s Medium (DMEM, Sigma, MO, USA) supplemented with 10% fetal bovine serum (Biowest, Mexico) and 10,000 U penicillin/streptomycin (Sigma-Aldrich, MO, USA). […] For growth and maintenance, cells were incubated in 5% CO2/95% air at 37°C and kept until 80–90% of confluence was reached. Then, cells were harvested, washed by centrifugation and resuspended in Krebs-Ringer buffer (KR, 125 mM NaCl, 5 mM KCl, 25 mM Hepes, 1 mM MgCl2, 1 mM KH2PO4, 1.4 mM CaCl2, pH 7.4) for further use. For experimentation, cancer cells (3–5 x 10^6 cells) were cultured in DMEM (with 25 mM glucose) for 24 h in the absence of drugs. Afterwards, old-medium was replaced with fresh DMEM medium (with 25 mM glucose) in the absence (control, non-treated cells) or in the presence of logarithmic concentrations of Aur and MA for 24 h more, under the same culture conditions described above. Viability of cultured cells was determined by the trypan blue exclusion assay. The protein concentration was determined by the Lowry method.
(§3) For cell proliferation in the presence of drugs, cancer cells (20 x 10^3 cells/well) were grown in 96-well plates containing DMEM (Sigma-Aldrich) plus 10% bovine fetal serum for 24 h. Afterwards, Aur or MA (0.01, 0.1, 10 and 100 μM) were added to the cell cultures and incubated for additional 24 h. The effect of these drugs on cell proliferation was determined in 96-well plates by the MTT (3-[4,5-dimethyl-thiazol-2-yl]-2,5-diphenyltetrazolium bromide) assay. The viability of cancer cells was > 95% after treatment with drugs.

Colorectal HCT116 cells = experiment: Cell proliferation, 24 h drug exposure; type: cell-based, human; settings: for IC50: Colorectal HCT116, 24 h, read-out: IC50 for proliferation cell rate; for TI ratio (3T3/ cancer cells): IC50 3T3 / IC50 HCT-116; for TI ratio (H9C2/cancer cells): IC50 H9C2 / IC50 HCT-116
Description: as §2, §3

Prostate PC3 cells = experiment: Cell proliferation, 24 h drug exposure; type: cell-based, human; settings: for TI ratio (3T3/ cancer cells): IC50 3T3 / IC50 PC3; for TI ratio (H9C2/cancer cells): IC50 H9C2 / IC50 PC3; for IC50: Prostate PC3, 24 h, read-out: IC50 for proliferation cell rate
Description: as §2, §3

Breast MCF-7 cells = experiment: Cell proliferation, 24 h drug exposure; type: cell-based, human; settings: for IC50: Breast MCF-7 (low metastatic), 24 h, read-out: IC50 for proliferation cell rate; for TI ratio (3T3/ cancer cells): IC50 3T3 / IC50 MCF-7; for TI ratio (H9C2/cancer cells): IC50 H9C2 / IC50 MCF-7
Description: as §2, §3

[1] = test system: AS-30D hepatoma mitochondria; experiment: Oxygen consumption of isolated mitochondria; type: biochemical, rat; parameters: Net State 3 oxygen consumption rate: unit not given here; settings: for Net State 3 (State 3 –pseudoState 4) oxygen consumption rate / Pseudo State 4 oxygen consumption rate / RC (State 3/ State 4), respiratory control / State 3 oxygen consumption rate / State 4 oxygen consumption rate / Net State 3 oxygen consumption rate / RC (State 3/ State 4): Hepatoma mitochondria
Description: AS-30D hepatocarcinoma cells were propagated in the peritoneal cavity of 200–250 g weight female Wistar rats by intra-peritoneal inoculation of 3 mL of a cellular suspension containing approximately 4 × 10^8 cells/mL [36]. After 5–6 days, the rats were sacrificed by cervical dislocation and AS-30D ascites liquid was extracted from peritoneal area with a sterile syringe and collected in 50 mL-plastic tubes. The hepatoma cells were harvested by centrifugation and washed once by centrifugation in KR buffer. For mitochondria isolation from AS-30D hepatoma, cells were permeabilized with digitonin (Sigma Aldrich, CA, USA) at 10–40 μg/mg cellular protein concentration.
Respiration of AS-30D, liver and heart mitochondria (1 mg protein/mL) was assayed oxygraphically with a Clark-type O2 electrode in KME (120 mM KCl, 20 mM Mops, 1 mM EGTA) buffer pH 7.2 plus 2 mM KH2PO4, and different oxidizable substrates (as indicated in Results). For state 3 respiration, 600 nmol ADP were added. Mitochondria were incubated at 37°C with Aur and MA for 30–60 s before substrates were added. At the end of each respiratory measurement, dithionite was added to get the chemical zero oxygen signal.
Isolated mitochondria (1mg protein/mL) were incubated in KME buffer (120 mM KCl, 20 mM MOPS, 1 mM EGTA) pH 7.20 plus 2 mM KH2PO4 and the indicated oxidizable substrates. For state 3 (ADP-stimulated) respiration, 300-600 nmol ADP were added. RC, respiratory control; n=3. To get the maximal reduction of molecular oxygen (zero oxygen concentration), sodium dithionite (Na2O4S2) was added at the end of each measurement.

[2] = 5 mM Glutamate/0.1 mM Malate, 10 μM Aur
[3] = 5 mM Glutamate/0.1 mM Malate, 25 μM Aur
[4] = 5 mM Glutamate/0.1 mM Malate, 50 μM Aur
[5] = 5 mM Glutamate/0.1 mM Malate, 100 μM Aur
[6] = Succinate 0.5 mM + Rotenone 2 µM, 10 µM Aur
[7] = Succinate 0.5 mM + Rotenone 2 µM, 25 µM Aur
[8] = Succinate 0.5 mM + Rotenone 2 µM, 50 µM Aur
[9] = Succinate 0.5 mM + Rotenone 2 µM, 100 µM Aur
[10] = 5 mM Glutamate/0.1 mM Malate, 5 μM MA
[11] = 5 mM Glutamate/0.1 mM Malate, 10 μM MA

## CC(=O)OC[C@H]1O[C@@H]([S-])[C@H](OC(C)=O)[C@@H](OC(C)=O)[C@@H]1OC(C)=O.CCP(CC)CC.[Au+] [Aur, [1-(thio-κS)-β-D-glucopyranose-2,3,4,6-tetraacetyl] (triethylphosphine)-gold]
HeLa cells; +Aur 1.7 μM
  OxPhos flux: 2.6 ± 0.5 nmol O2 min^-1 mg protein^-1
MDA-MB-231 cells; +Aur 0.8 μM
  OxPhos flux: 2.5 ± 0.5 nmol O2 min^-1 mg protein^-1
Breast MDA-MB-231 cells
  IC50: 0.8 ± 0.2 µM
  TI ratio (3T3/ cancer cells): 52
  TI ratio (H9C2/cancer cells): 97
Colorectal HCT116 cells
  IC50: 3 ± 1 µM
  TI ratio (3T3/ cancer cells): 14
  TI ratio (H9C2/cancer cells): 26
Prostate PC3 cells
  TI ratio (3T3/ cancer cells): 6
  TI ratio (H9C2/cancer cells): 12
  IC50: 6.5 ± 3.5 µM
Breast MCF-7 cells
  IC50: 5 ± 0.6 µM
  TI ratio (3T3/ cancer cells): 8
  TI ratio (H9C2/cancer cells): 15
[1]; [2]
  Net State 3 (State 3 –pseudoState 4) oxygen consumption rate: 91.5 ± 8 nmol O2 min^-1 mg protein^-1
  Pseudo State 4 oxygen consumption rate: 33.5 ± 2 nmol O2 min^-1 mg protein^-1
  RC (State 3/ State 4), respiratory control: 2.8 ± 0.5
  State 3 oxygen consumption rate: 125 ± 9 nmol O2 min^-1 mg protein^-1
  State 4 oxygen consumption rate: 44 ± 6 nmol O2 min^-1 mg protein^-1
[1]; [3]
  Net State 3 (State 3 –pseudoState 4) oxygen consumption rate: 78 ± 29 nmol O2 min^-1 mg protein^-1
  Pseudo State 4 oxygen consumption rate: 37 ± 5 nmol O2 min^-1 mg protein^-1
  RC (State 3/ State 4), respiratory control: 2.6 ± 0.5
  State 3 oxygen consumption rate: 114± 31 nmol O2 min^-1 mg protein^-1
  State 4 oxygen consumption rate: 43 ± 3 nmol O2 min^-1 mg protein^-1
[1]; [4]
  Net State 3 (State 3 –pseudoState 4) oxygen consumption rate: 80 ± 39 nmol O2 min^-1 mg protein^-1
  Pseudo State 4 oxygen consumption rate: 52.5 ± 11 nmol O2 min^-1 mg protein^-1
  RC (State 3/ State 4), respiratory control: 2.2 ± 0.5
  State 3 oxygen consumption rate: 133± 46 nmol O2 min^-1 mg protein^-1
  State 4 oxygen consumption rate: 74 ± 28 nmol O2 min^-1 mg protein^-1
[1]; [5]
  Net State 3 (State 3 –pseudoState 4) oxygen consumption rate: 68 ± 41 nmol O2 min^-1 mg protein^-1
  Pseudo State 4 oxygen consumption rate: 67 ± 21.5 nmol O2 min^-1 mg protein^-1
  RC (State 3/ State 4), respiratory control: 1.5 ± 0.4
  State 3 oxygen consumption rate: 125 ± 61 nmol O2 min^-1 mg protein^-1
  State 4 oxygen consumption rate: 79 ± 30 nmol O2 min^-1 mg protein^-1
[1]; [6]
  Net State 3 oxygen consumption rate: 63 ± 13
  Pseudo State 4 oxygen consumption rate: 80 ± 10
  RC (State 3/ State 4): 1.9 ± 0.5
  State 3 oxygen consumption rate: 143 ± 18
  State 4 oxygen consumption rate: 73 ± 7.5
[1]; [7]
  Net State 3 oxygen consumption rate: 56.5 ± 21
  Pseudo State 4 oxygen consumption rate: 90 ± 31
  RC (State 3/ State 4): 1.7 ± 0.1
  State 3 oxygen consumption rate: 147± 23
  State 4 oxygen consumption rate: 84 ± 15
[1]; [8]
  Net State 3 oxygen consumption rate: 58.3 ± 63
  Pseudo State 4 oxygen consumption rate: 83 ± 23
  RC (State 3/ State 4): 1.9 ± 0.3
  State 3 oxygen consumption rate: 141.5± 65
  State 4 oxygen consumption rate: 70 ± 28
[1]; [9]
  Net State 3 oxygen consumption rate: 26 ± 46
  Pseudo State 4 oxygen consumption rate: 82 ± 34
  RC (State 3/ State 4): 1.8 ± 0.4
  State 3 oxygen consumption rate: 104 ± 24
  State 4 oxygen consumption rate: 56.5 ± 7
[1]; hepatoma mitochondria, GM
  increase of state 4 respiration rates (times): 2.3–2.4 times

## Cc1ccc(Cl)c(Nc2ccccc2C(=O)O)c1Cl [MA, Meclofenamic acid]
HeLa cells; +MA 6 μM
  OxPhos flux: 1.1 ± 0.3 nmol O2 min^-1 mg protein^-1
MDA-MB-231 cells; +MA 50 μM
  OxPhos flux: 3.1 ± 2 nmol O2 min^-1 mg protein^-1
Breast MDA-MB-231 cells; Homo sapiens
  IC50: 51 ± 5 µM
Breast MDA-MB-231 cells
  TI ratio (3T3/ cancer cells): 2
  TI ratio (H9C2/cancer cells): 2
Colorectal HCT116 cells; Homo sapiens, HCT-116
  IC50: > 100 µM
Colorectal HCT116 cells
  TI ratio (3T3/ cancer cells): 1
  TI ratio (H9C2/cancer cells): 1
Prostate PC3 cells; Homo sapiens, PC-3
  IC50: 6 ± 3 µM
Prostate PC3 cells
  TI ratio (3T3/ cancer cells): 17
  TI ratio (H9C2/cancer cells): 17
Breast MCF-7 cells; Homo sapiens, MCF7
  IC50: > 100 µM
Breast MCF-7 cells
  TI ratio (3T3/ cancer cells): 1
  TI ratio (H9C2/cancer cells): 1
[1]; [10]
  Net State 3 oxygen consumption rate: 26 ± 13
  Pseudo State 4 oxygen consumption rate: 19 ± 4 (3)
  RC (State 3/ State 4): 1 (3)
  State 3 oxygen consumption rate: 45 ± 10 (3)
  State 4 oxygen consumption rate: 45 ± 10 (3)
[1]; [11]
  Net State 3 oxygen consumption rate: 0
  RC (State 3/ State 4): 1 (3)
  State 3 oxygen consumption rate: 36 ± 7 (3)
  State 4 oxygen consumption rate: 36 ± 7 (3)
[1]; 5 mM Glutamate/0.1 mM Malate, 10 μM MA, in nmol O2/min/mg protein
  Pseudo State 4 oxygen consumption rate: 45 ± 15 (3)
